Data set [1] is described as follows: A549 cell cytotoxicity, dose response, cytotoxicity control, plate reader, cherry-pick, antagonist series (AID 743412). The class given is functional, cell-based.
The target of the next data set is Cytochrome P450 2C9 (Homo sapiens, UniProt P11712).
Another data set has as its target Cytochrome P450 2C19 (Homo sapiens, UniProt P33261). As to the kind of experiment: Cytochrome panel assay with activity outcomes. Panel member name: p450-cyp2c19 Compounds with AC50 equal or less than 10 uM are considered active. Particulars: read-out: AC50. The class given is functional.
A short description of data set [2]: viability loss in HeLa cells – cytotoxicity control for MgcRacGAP inhibitor project, dose response (AID 624300). The class given is functional.
The target in data set [3] is T1, Rac GTPase-activating protein 1 (Homo sapiens, UniProt Q9H0H5).
T1 sequence (Q9H0H5 whole entry): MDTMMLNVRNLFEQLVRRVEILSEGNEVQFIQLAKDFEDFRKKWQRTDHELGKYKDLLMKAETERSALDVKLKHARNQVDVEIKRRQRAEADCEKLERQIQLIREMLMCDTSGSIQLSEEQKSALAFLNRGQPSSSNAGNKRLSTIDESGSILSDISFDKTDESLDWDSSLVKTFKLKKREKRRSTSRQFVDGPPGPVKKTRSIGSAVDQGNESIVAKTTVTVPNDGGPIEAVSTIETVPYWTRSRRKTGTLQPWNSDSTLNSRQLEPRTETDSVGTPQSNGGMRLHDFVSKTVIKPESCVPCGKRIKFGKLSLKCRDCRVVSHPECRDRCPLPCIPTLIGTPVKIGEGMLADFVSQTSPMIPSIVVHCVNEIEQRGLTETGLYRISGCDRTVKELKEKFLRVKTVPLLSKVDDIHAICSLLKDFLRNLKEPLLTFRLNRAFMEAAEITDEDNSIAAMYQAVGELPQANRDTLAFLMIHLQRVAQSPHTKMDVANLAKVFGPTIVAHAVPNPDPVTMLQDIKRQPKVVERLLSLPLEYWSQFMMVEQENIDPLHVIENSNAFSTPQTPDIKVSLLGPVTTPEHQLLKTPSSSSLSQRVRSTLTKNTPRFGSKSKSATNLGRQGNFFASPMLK
Kind of data set: blockers of MgcRacGAP-driven Rac1 GTP hydrolysis – biochemical, ADP Hunter fluorescence, primary and confirmatory, confirmation (AID 624330). It counts as functional.

The test system of another data set is HEK293. Kind of data set: EBV LMP1 TES2 canonical NF-kB signalling blockers – cell-based, HEK293, luciferase, cherry-pick, dose response (AID 588343). It counts as functional. The settings on record: Homo sapiens.
The target of data set [4] is T2, Short transient receptor potential channel 4 (Mus musculus, UniProt Q9QUQ5).
T2 sequence (Q9QUQ5 whole entry): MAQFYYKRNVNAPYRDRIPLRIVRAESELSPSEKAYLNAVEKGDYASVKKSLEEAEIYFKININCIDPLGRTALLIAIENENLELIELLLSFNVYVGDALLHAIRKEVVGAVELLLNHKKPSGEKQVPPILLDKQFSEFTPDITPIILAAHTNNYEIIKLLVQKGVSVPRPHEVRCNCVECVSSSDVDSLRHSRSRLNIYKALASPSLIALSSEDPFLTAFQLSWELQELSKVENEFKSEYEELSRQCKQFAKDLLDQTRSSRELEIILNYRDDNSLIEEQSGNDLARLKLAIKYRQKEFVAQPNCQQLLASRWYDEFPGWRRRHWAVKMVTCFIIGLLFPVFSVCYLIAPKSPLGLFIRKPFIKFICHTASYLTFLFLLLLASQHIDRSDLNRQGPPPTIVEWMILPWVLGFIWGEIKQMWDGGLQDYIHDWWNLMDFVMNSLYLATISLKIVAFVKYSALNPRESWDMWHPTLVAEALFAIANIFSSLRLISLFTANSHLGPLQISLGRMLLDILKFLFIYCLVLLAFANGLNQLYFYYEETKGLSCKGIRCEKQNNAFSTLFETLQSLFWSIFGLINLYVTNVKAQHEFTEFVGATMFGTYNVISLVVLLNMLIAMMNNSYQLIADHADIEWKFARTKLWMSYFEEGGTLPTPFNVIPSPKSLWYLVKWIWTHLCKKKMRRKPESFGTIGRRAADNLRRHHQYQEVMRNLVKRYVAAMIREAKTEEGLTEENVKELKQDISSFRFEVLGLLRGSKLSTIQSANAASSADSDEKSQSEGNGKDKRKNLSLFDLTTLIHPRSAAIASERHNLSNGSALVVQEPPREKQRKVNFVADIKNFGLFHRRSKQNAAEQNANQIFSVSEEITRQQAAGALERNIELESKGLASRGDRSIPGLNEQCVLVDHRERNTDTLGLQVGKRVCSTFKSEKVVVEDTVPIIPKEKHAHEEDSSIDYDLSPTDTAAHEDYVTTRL
Kind of data set: block of DAMGO-driven TRPC4 calcium entry – cell-based, HEK293 TRPC4/mu-opioid, Fluo-4 calcium, dose response (AID 434942).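 Further: potency of inhibitors blocking the TRPC4 calcium response.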 It counts as functional.

The target of data set [5] is T2, Short transient receptor potential channel 4. Kind of data set: calcium entry via TRPC4 opening agents – cell-based, HEK293 TRPC4/mu-opioid, Fluo-4 calcium, dose response (AID 434937). The class given is functional.
A further data set concerns the target T3, Cytochrome P450 1A2 (Homo sapiens, UniProt P05177).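 Further: PubChem cytochrome P450 panel assay, CYP1A2 panel member.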
T3 sequence (P05177 whole entry): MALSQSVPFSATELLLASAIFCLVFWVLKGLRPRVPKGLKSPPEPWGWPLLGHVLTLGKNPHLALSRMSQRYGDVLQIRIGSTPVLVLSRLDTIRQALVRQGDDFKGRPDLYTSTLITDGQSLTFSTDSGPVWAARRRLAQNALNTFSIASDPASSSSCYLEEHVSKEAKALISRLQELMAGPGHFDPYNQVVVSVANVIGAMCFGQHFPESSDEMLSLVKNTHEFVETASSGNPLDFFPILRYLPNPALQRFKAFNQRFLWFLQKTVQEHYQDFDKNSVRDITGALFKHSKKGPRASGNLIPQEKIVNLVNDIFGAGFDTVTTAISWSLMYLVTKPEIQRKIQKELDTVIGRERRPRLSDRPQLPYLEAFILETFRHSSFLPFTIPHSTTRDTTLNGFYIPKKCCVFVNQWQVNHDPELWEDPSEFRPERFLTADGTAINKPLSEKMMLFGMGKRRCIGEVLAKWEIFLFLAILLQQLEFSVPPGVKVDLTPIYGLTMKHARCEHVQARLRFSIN

Data set [6] is described as follows: NIH-3T3 fibroblast cytotoxicity, dose response, cytotoxicity control, cell-based, fluorescence, Alamar Blue, secondary assay (AID 2327).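 Further: NIH-3T3 mouse fibroblasts cultured with fluconazole at 8 µg/mL.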 It counts as functional.
The nature of data set [7]: fluconazole-exposed Candida albicans growth modulators – fluorescence, retest, confirmation (AID 2467). The class given is functional, cell-based.
Data set [8] has as its target T4, Histone-lysine N-methyltransferase NSD2 (Homo sapiens, UniProt O96028).
T4 sequence (O96028 whole entry): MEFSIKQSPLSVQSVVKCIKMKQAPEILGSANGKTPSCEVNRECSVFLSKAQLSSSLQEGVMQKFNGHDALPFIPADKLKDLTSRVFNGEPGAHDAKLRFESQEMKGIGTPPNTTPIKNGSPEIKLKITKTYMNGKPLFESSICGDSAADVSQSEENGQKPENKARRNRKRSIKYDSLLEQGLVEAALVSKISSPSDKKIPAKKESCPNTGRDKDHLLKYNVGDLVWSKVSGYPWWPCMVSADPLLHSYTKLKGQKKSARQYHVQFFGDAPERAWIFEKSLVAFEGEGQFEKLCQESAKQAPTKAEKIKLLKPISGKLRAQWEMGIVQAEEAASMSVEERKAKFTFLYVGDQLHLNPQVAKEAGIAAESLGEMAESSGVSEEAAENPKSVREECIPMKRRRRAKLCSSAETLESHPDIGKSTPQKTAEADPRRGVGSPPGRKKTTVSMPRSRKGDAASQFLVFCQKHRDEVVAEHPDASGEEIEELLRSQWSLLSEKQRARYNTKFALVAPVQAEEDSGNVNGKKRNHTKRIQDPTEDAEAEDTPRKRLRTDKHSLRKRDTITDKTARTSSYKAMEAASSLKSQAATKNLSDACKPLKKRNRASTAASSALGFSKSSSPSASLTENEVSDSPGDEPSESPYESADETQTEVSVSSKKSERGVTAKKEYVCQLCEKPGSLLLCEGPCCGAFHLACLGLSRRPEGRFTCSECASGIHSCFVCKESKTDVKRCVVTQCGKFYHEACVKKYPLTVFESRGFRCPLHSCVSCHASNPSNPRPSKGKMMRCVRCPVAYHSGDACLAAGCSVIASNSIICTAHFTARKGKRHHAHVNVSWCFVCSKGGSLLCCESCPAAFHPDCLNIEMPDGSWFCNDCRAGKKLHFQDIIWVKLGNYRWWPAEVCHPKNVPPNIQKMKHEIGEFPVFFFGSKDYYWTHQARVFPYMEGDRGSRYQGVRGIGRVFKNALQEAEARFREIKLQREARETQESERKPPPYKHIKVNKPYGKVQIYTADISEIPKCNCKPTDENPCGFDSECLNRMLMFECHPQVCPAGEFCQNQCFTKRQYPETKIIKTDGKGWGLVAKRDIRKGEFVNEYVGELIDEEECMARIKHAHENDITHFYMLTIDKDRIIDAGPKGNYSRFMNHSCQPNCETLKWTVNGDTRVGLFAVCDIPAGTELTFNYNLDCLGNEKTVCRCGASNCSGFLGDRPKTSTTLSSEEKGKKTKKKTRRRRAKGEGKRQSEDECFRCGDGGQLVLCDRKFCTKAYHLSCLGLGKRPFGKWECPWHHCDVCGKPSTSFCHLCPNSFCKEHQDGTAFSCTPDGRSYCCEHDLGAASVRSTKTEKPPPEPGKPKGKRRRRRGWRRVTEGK
The class given is biochemical.

Data set [9] deals with Glucose-6-phosphate 1-dehydrogenase (Homo sapiens, UniProt P11413). As to the kind of experiment: inhibition of Homo sapiens G6PD, dose series – biochemical, fluorescence, selectivity assay for P. falciparum G6PD inhibitor project, dose response (AID 504792). It counts as functional.
Glucose-6-phosphate 1-dehydrogenase, sequence (P11413 whole entry): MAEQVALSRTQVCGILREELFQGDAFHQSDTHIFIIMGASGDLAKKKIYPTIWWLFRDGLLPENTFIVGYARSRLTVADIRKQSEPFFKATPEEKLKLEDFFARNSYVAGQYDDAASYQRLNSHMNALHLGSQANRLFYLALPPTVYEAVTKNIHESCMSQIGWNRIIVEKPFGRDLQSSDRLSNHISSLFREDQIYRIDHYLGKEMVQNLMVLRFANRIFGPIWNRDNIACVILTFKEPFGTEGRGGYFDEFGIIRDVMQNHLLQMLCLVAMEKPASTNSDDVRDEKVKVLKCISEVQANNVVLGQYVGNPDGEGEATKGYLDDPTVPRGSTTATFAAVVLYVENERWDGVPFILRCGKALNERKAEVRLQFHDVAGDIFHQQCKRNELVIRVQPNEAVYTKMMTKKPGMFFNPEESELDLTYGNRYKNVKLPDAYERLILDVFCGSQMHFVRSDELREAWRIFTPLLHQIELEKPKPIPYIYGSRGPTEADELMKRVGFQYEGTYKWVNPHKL
The nature of data set [10]: growth inhibition of yeast DHODH-expressing 3D7 parasites – SYBR Green, dry powder samples, dose response (AID 1159570).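 Further: parasite growth measured after 72 hours of compound exposure.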 The class given is functional, cell-based.
The nature of data set [11]: P. falciparum Dd2 growth inhibitors, dose response, SYBR Green, cherry-picked samples (AID 1159567). The class given is functional, cell-based.
Data set [12] is described as follows: Dd2 malaria parasite growth inhibition potency – SYBR Green, dry powder samples, dose response (AID 1159566).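 Further: potency for growth inhibition with lower SYBR green DNA signal.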 The class given is functional, cell-based.
Data set [13] in a line: growth inhibition of PfATP4-mutant resistant parasites – NITD609-resistant line, SYBR Green, dry powder, dose response (AID 1159571).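 Further: parasites synchronized at ring stage by sorbitol before testing.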 The class given is functional, cell-based.
Another data set deals with Cytochrome P450 3A4 (Homo sapiens, UniProt P08684).
Cytochrome P450 3A4, sequence (P08684 whole entry): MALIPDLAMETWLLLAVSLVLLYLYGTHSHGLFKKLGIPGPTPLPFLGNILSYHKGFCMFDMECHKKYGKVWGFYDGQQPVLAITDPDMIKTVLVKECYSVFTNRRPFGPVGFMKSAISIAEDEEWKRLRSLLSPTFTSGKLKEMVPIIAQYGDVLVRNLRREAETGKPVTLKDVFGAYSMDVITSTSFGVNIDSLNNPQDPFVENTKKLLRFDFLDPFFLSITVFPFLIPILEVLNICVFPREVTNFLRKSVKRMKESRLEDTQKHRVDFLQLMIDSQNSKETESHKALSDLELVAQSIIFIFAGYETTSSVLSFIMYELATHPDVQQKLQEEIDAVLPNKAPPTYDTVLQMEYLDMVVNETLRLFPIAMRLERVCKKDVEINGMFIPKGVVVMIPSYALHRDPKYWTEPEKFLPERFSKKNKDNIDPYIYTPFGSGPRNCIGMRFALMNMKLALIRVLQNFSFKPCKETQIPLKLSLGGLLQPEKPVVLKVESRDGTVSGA

As usually defined, the AC50 is the concentration at which the activity in the assay is half-maximal. By CC50 is commonly meant the concentration that lowers cell viability or growth by half. By IC50 is commonly meant the concentration at which inhibition is half-maximal. What is called EC50 is the concentration at which the effect is half-maximal.

Molecules are shown by their SMILES. Calls of active or inactive are those of the source.

Cytochrome P450 2C9, sequence (P11712 whole entry): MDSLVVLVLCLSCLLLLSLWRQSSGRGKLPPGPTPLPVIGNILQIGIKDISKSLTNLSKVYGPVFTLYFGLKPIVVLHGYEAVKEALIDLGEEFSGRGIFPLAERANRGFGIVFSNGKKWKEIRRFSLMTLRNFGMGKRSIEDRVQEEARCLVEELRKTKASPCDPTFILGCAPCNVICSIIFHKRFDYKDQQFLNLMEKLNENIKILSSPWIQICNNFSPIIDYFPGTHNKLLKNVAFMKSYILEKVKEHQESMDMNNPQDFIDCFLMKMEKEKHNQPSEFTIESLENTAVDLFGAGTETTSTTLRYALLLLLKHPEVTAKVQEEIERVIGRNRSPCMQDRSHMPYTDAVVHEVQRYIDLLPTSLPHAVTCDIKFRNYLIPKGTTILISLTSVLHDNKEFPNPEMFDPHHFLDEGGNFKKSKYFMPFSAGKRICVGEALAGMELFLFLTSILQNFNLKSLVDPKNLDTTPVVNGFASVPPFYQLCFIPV
Cytochrome P450 2C19, sequence (P33261 whole entry): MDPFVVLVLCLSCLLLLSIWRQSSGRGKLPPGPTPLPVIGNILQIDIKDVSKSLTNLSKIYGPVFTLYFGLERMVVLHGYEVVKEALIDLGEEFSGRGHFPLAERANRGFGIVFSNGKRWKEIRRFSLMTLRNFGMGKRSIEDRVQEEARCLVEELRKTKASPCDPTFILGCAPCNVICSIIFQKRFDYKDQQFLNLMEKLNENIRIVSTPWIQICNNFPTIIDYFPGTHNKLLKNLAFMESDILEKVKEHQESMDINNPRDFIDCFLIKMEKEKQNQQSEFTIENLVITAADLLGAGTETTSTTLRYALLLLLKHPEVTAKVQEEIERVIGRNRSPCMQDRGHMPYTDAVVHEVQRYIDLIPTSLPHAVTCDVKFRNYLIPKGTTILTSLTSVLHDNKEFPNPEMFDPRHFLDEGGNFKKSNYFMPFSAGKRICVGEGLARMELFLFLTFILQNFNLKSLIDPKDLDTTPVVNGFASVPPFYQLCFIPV

As to `Cn1nnnc1SCC(=O)N1CCN(C(=O)c2ccco2)CC1`, the AC50 in data set [1] is > 52 µM (inactive). As for `Cn1c(=O)c2cc(S(=O)(=O)NCCC(=O)Nc3ccc(Cl)cc3)ccc2n(C)c1=O`, the AC50 entry at Cytochrome P450 2C9 is “inconclusive”. Turning to `C[C@H]1CC[C@H]2C(=O)N[C@H](Cc3ccccc3)C(=O)N2[C@@H]1c1ccccc1`, the AC50 at Cytochrome P450 2C19 is 3.98 µM (inconclusive); at Cytochrome P450 2C9, “inconclusive”. For the compound `COc1cc(CNCCc2ccc3c(c2)OCO3)cc(OC)c1OC`, the CC50 in data set [2] is 100 µM (active). Moreover, the IC50 in data set [3] is 127 µM (active). As to `COc1ccc(C(c2c(C)n(C)n(-c3ccccc3)c2=O)c2c(C)n(C)n(-c3ccccc3)c2=O)c(OC)c1OC`, in the data set on HEK293, the AC50 is 344 µM (active).

As to `CCOC(=O)C1(CC2CC2)CCN(Cc2ccc3cccc(F)c3n2)CC1`, the values for the EC50 in data set [4] and in data set [5] were 0.841 µM (active) and 2.66 µM (active), respectively. `O=C(N/C(=C/c1ccco1)C(=O)N1CCCCCC1)c1cccs1`: the AC50 at Cytochrome P450 2C19 was 3.98 µM (inconclusive); on Cytochrome P450 1A2 it was 17.8 µM (inconclusive); on Cytochrome P450 2C9, “inconclusive”. Regarding `Cc1ccc(S(=O)(=O)NC2=NC(=O)/C(=C\c3cc(Br)cc(Br)c3O)S2)cc1`, the EC50 in [6] is 9.99 µM (active); in data set [7] it was > 38 µM (not active); in data set [5] it was 10.6 µM (active). Further, the AC50 in data set [8] was 6.67 µM (active). For the compound `O=C(CSc1nc2cc(Cl)ccc2s1)c1ccco1`, the IC50 in data set [9] was > 80 µM (inactive).

On to `Cc1ccc(C(=O)Nc2nnc(S(=O)(=O)N3CCC(C)CC3)s2)cc1`, for which the IC50 in data set [9] is > 80 µM (inactive). In the case of `O=C(Nc1ccccc1)N1CC2(CCN(C(=O)c3cc(C(F)(F)F)cc(C(F)(F)F)c3)CC2)C1`, the AC50 entry on Cytochrome P450 2C9 was “inconclusive”. Turning to `Cc1cc(SCC(=O)c2ccc(O)c(O)c2)nc2ccccc12`, the CC50 in data set [2] was 100 µM (active). Besides, in [3], the half-inhibitory concentration (IC50) was 58.2 µM (active). Also, the AC50 in data set [8] is 6.7 µM (active). Consider `Cc1[nH]c2ccccc2c1/C=N/Nc1nncn1N`, for which the IC50 in [9] is 44.1 µM (inactive); in data set [3], 63.7 µM (active). Take `O=C(Nc1ccccc1C(=O)N/N=C/c1ccco1)c1ccccc1Cl`: the IC50 in data set [9] is > 80 µM (inactive). On to `COc1cccc(CN2CC3(CCN(Cc4ccccn4)CC3)c3c([nH]c4cc(OC)ccc34)[C@@H]2CO)c1`, for which the AC50 in data set [10] was 1.71 µM (active); in data set [11] it was 1.96 µM (active); in data set [12] it was 1.79 µM (active); in data set [13] it was 2.04 µM (active). Consider `Oc1ccc2oc3c(c2c1)CCCC3`, for which the AC50 on Cytochrome P450 3A4 was 22.4 µM (inconclusive); on Cytochrome P450 2C9 it was “inconclusive”.

Source of the values: ChEMBL document CHEMBL1201862, “PubChem BioAssay data set” (2004).
